Common to all, as to type: functional
Assay [1] has as its system Pseudoperonospora cubensis. Put plainly: Antifungal activity against Pseudoperonospora cubensis after 7 days. Set-up: concentration or dose not given beside the values.
Assay [2] has as its system Xanthomonas axonopodis. The assay is described as follows: Antibacterial activity against Xanthomonas axonopodis after 7 days. Set-up: concentration or dose not given beside the values.
In assay [3] the test system is Eleusine indica. The assay is described as follows: Herbicidal activity against Eleusine indica assessed as disease control at 1000 ppm treated in foliage during 15 to 20 days relative to control.
Assay [4] relates to Echinochloa crus-galli. Put plainly: Herbicidal activity against Echinochloa crus-galli (barnyard grass) assessed as disease control at 1000 ppm treated in paddy field during 15 to 20 days relative to control.
The test system of assay [5] is Amaranthus viridis. The assay is described as follows: Herbicidal activity against Amaranthus viridis assessed as disease control at 1000 ppm treated in soil during 15 to 20 days relative to control.
For assay [6], the system named is Chenopodium album. Put plainly: Herbicidal activity against Chenopodium album assessed as disease control at 1000 ppm treated in foliage during 15 to 20 days relative to control.
Assay [7] has as its system Persicaria hydropiper. Put plainly: Herbicidal activity against Persicaria hydropiper assessed as disease control at 1000 ppm treated in foliage during 15 to 20 days relative to control.
Assay [8] relates to Pyricularia oryzae. The assay is described as follows: Antifungal activity against Magnaporthe oryzae after 7 days. Set-up: concentration or dose not given beside the values.
The test system of assay [9] is Botrytis cinerea. Put plainly: Antifungal activity against Botryotinia fuckeliana after 7 days. Set-up: concentration or dose not given beside the values.
For assay [10], the system named is Chenopodium album. Put plainly: Herbicidal activity against Chenopodium album assessed as disease control at 1000 ppm treated in soil during 15 to 20 days relative to control.
Assay [11] concerns Persicaria hydropiper. The assay is described as follows: Herbicidal activity against Persicaria hydropiper assessed as disease control at 1000 ppm treated in soil during 15 to 20 days relative to control.
For assay [12], the system named is Eleusine indica. The assay is described as follows: Herbicidal activity against Eleusine indica assessed as disease control at 1000 ppm treated in soil during 15 to 20 days relative to control.
In assay [13] the test system is Oryza sativa. Put plainly: Herbicidal activity against Oryza sativa assessed as disease control at 1000 ppm treated in paddy field during 15 to 20 days relative to control.
Assay [14] deals with Echinochloa crus-galli. The assay is described as follows: Herbicidal activity against Echinochloa crus-galli (barnyard grass) assessed as disease control at 1000 ppm treated in soil during 15 to 20 days relative to control.
Assay [15] has as its system Echinochloa crus-galli. Put plainly: Herbicidal activity against Echinochloa crus-galli (barnyard grass) assessed as disease control at 1000 ppm treated in foliage during 15 to 20 days relative to control.
Assay [16] deals with Amaranthus viridis. The assay is described as follows: Herbicidal activity against Amaranthus viridis assessed as disease control at 1000 ppm treated in foliage during 15 to 20 days relative to control.
For assay [17], the system named is Cyperus compressus. Put plainly: Herbicidal activity against Cyperus compressus assessed as disease control at 1000 ppm treated in paddy field during 15 to 20 days relative to control.
Assay [18] relates to Fusarium fujikuroi. The assay is described as follows: Antifungal activity against Fusarium fujikuroi after 7 days. Set-up: concentration or dose not given beside the values.

On to `c1ccc2nc(-c3nc4ccccc4o3)ccc2c1`, for which the Activity in assay [1], in assay [2], in assay [3], in assay [4], in [5] and in assay [6] was less than 39% in each case. The Activity in assay [7], in assay [8], in assay [9], in assay [10], in [11] and in assay [12] was less than 39% each time. Besides, the Activity in [13] is reported as 40%; in assay [14], less than 39%; in [15], less than 39%; in assay [16] it was less than 39%; in assay [17], less than 39%; in [18] it was less than 39%.
In the case of `c1ccc(-c2nc3ccccc3o2)nc1`, the Activity in assay [1], in assay [2], in assay [3], in assay [4], in assay [5] and in assay [6] was less than 39% throughout. The Activity in assay [7], in assay [8], in assay [9], in [10], in assay [11] and in [12] was less than 39% in each case. Besides, the Activity in assay [13] is given as less than 39%; in assay [14] it was less than 39%; in assay [15], less than 39%; in assay [16], less than 39%; in assay [17] it was 40%; in assay [18], less than 39%.
As for `COc1ccc2sc(-c3ccncc3)nc2c1`, the Activity in assay [1], in assay [2], in assay [3], in assay [4], in [5] and in assay [6] was less than 39% each time. For the same compound, the Activity in assay [7], in assay [8], in [9], in assay [10], in [11] and in assay [12] was less than 39% throughout. In addition, the Activity is reported as less than 39% in [13]; less than 39% in assay [14]; less than 39% in [15]; less than 39% in [16]; 60% in [17]; less than 39% in [18].
For the compound `CCOc1ccc2sc(-c3ccncc3)nc2c1`, the Activity in [1], in assay [2], in assay [3], in [4], in assay [5] and in assay [6] was less than 39% in each case. In addition, the Activity in [7], in assay [8], in assay [9], in assay [10], in assay [11] and in assay [12] was less than 39% in each case. Moreover, the Activity is on record as less than 39% in assay [13]; less than 39% in [14]; less than 39% in assay [15]; less than 39% in [16]; greater than 80% in [17]; less than 39% in [18].
For `c1ccc2nc(-c3nc4ccccc4s3)ccc2c1`, the Activity in assay [1], in assay [2], in [3], in assay [4], in [5] and in assay [6] was less than 39% throughout. Also, the Activity in [7], in [8], in assay [9], in assay [10], in assay [11] and in assay [12] was less than 39% in each case. In addition, the Activity in [13], in [14], in [15], in [16], in [17] and in assay [18] was less than 39% in each case.
With `c1ccc2oc(-c3nc4ccccc4s3)nc2c1`, the Activity in [1], in assay [2], in assay [3], in [4], in assay [5] and in assay [6] was less than 39% throughout. Further, the Activity in assay [7], in assay [8], in assay [9], in assay [10], in assay [11] and in assay [12] was less than 39% in each case. In addition, the Activity in assay [13], in assay [14], in assay [15], in assay [16], in assay [17] and in assay [18] was less than 39% throughout.
As to `c1ccc2oc(-c3ccncc3)nc2c1`, the Activity in [1] is recorded as less than 39%; in assay [2], less than 39%; in assay [3], less than 39%; in assay [4], 40%; in assay [5], less than 39%; in assay [6] it was less than 39%. The Activity in assay [7] is reported as less than 39%; in assay [8] it was less than 39%; in assay [9], 40%; in assay [10], less than 39%; in assay [11] it was less than 39%; in assay [12], less than 39%. Moreover, the Activity in assay [13] is reported as less than 39%; in assay [14] it was less than 39%; in assay [15] it was less than 39%; in assay [16], less than 39%; in assay [17], less than 39%; in [18] it was 60%.
Take `COc1ccc2[nH]c(-c3ccncc3)nc2c1`: the Activity in [1] was 40%; in [2], 60%; in [3], less than 39%; in [4] it was less than 39%; in [5] it was less than 39%; in [6] it was less than 39%. Moreover, the Activity in assay [7] is less than 39%; in assay [8], greater than 80%; in assay [9], 60%; in [10], less than 39%; in [11], less than 39%; in assay [12], less than 39%. The Activity in [13], in assay [14], in assay [15], in assay [16], in [17] and in [18] was less than 39% each time.
For `Cc1cccc2[nH]c(-c3ccccn3)nc12`, the Activity in assay [1], in assay [2], in assay [3], in assay [4], in [5] and in assay [6] was less than 39% throughout. For the same compound, the Activity is less than 39% in assay [7]; 40% in assay [8]; 60% in assay [9]; less than 39% in assay [10]; less than 39% in assay [11]; less than 39% in assay [12]. In addition, the Activity in assay [13], in [14], in assay [15], in assay [16], in assay [17] and in [18] was less than 39% throughout.
`O=[N+]([O-])c1cccc2nc(-c3ccccn3)[nH]c12`: the Activity in [1], in assay [2], in assay [3], in assay [4], in assay [5] and in assay [6] was less than 39% in each case. Further, the Activity in assay [7] is listed as less than 39%; in [8], 40%; in assay [9], less than 39%; in assay [10] it was less than 39%; in assay [11], less than 39%; in assay [12], less than 39%. Besides, the Activity in [13], in assay [14], in assay [15], in assay [16], in assay [17] and in assay [18] was less than 39% in each case.
On to `CCOc1ccc2sc(-c3ccccn3)nc2c1`, for which the Activity in [1] is listed as less than 39%; in assay [2] it was less than 39%; in assay [3], less than 39%; in assay [4], 40%; in [5], less than 39%; in assay [6] it was 60%. Besides, the Activity in assay [7], in assay [8], in [9], in assay [10], in assay [11] and in assay [12] was less than 39% each time. Also, the Activity in assay [13] is reported as less than 39%; in assay [14] it was less than 39%; in assay [15], less than 39%; in assay [16] it was 40%; in assay [17], 40%; in [18] it was less than 39%.

(Values after ChEMBL document CHEMBL3045339, “Synthesis of benzoxazoles, benzothiazoles and benzimidazoles and evaluation of their antifungal, insecticidal and herbicidal activities” (1992).)
